Measurements published in PMC10882719 (Frontiers in Neuroscience, 2024).
Read-outs that look alike come from different tables or passages of the source.

Key:
Format in all cases: cell-based
168 GPCRs [1] = target: T1, 168 GPCRs (Homo sapiens, UniProt Q99788)
T1 construct: host or cells: PathHunter cell lines
T1 sequence (Q99788 1-373): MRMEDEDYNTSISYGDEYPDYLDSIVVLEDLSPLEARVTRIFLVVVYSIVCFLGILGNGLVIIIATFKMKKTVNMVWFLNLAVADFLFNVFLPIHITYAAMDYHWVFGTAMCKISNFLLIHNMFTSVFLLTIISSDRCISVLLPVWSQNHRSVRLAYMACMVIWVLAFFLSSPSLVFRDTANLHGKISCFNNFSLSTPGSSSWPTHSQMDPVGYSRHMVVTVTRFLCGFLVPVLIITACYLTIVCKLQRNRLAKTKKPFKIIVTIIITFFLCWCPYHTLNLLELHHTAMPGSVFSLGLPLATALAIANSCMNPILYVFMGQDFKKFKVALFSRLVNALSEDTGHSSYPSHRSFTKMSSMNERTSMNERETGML

168 GPCRs [2] = target: T2, 168 GPCRs (Homo sapiens, UniProt P28566); conditions: HTR1E
T2 construct: host or cells: PathHunter cell lines
T2 sequence (P28566 whole entry): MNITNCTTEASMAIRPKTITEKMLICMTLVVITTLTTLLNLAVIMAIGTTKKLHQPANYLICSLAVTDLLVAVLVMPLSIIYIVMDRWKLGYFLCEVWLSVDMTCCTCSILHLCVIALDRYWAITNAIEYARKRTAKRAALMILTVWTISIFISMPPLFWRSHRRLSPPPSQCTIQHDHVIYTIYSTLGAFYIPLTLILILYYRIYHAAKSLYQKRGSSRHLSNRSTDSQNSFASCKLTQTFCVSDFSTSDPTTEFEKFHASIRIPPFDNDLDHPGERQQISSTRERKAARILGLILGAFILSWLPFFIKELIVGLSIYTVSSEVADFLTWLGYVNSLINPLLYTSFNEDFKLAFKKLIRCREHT

168 GPCRs [3] = target: T3, 168 GPCRs (Homo sapiens, UniProt Q15077); conditions: P2RY6
T3 construct: host or cells: PathHunter cell lines
T3 sequence (Q15077 whole entry): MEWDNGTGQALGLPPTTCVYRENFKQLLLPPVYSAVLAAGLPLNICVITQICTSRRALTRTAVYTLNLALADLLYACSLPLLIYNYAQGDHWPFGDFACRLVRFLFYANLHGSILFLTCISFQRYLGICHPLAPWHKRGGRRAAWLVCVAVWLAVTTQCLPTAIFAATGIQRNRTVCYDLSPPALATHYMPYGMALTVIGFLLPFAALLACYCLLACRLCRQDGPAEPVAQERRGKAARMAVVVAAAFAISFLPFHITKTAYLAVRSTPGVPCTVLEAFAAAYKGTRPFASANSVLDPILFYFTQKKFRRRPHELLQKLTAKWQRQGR

168 GPCRs [4] = target: T4, 168 GPCRs (Homo sapiens, UniProt P23945); conditions: FSHR
T4 construct: host or cells: PathHunter cell lines
T4 sequence (P23945 18-695): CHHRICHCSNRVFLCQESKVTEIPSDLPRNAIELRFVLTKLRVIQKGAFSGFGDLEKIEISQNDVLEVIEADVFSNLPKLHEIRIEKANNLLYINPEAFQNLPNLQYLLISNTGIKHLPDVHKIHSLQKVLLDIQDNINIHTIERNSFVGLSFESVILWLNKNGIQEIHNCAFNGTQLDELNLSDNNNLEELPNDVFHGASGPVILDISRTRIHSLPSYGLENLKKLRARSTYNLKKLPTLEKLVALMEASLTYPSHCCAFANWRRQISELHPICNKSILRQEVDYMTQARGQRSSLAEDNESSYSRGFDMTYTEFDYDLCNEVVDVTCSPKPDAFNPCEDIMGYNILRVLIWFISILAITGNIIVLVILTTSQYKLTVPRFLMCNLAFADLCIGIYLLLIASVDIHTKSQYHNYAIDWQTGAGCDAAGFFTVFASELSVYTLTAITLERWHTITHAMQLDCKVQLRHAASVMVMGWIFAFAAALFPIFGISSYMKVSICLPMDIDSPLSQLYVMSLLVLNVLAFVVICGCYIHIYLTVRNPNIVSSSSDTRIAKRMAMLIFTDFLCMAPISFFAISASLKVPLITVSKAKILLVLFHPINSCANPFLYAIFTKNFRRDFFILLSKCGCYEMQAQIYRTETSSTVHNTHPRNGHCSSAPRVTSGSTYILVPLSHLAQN

168 GPCRs [5] = target: T5, 168 GPCRs (Homo sapiens, UniProt P20309)
T5 construct: host or cells: PathHunter cell lines
T5 sequence (P20309 whole entry): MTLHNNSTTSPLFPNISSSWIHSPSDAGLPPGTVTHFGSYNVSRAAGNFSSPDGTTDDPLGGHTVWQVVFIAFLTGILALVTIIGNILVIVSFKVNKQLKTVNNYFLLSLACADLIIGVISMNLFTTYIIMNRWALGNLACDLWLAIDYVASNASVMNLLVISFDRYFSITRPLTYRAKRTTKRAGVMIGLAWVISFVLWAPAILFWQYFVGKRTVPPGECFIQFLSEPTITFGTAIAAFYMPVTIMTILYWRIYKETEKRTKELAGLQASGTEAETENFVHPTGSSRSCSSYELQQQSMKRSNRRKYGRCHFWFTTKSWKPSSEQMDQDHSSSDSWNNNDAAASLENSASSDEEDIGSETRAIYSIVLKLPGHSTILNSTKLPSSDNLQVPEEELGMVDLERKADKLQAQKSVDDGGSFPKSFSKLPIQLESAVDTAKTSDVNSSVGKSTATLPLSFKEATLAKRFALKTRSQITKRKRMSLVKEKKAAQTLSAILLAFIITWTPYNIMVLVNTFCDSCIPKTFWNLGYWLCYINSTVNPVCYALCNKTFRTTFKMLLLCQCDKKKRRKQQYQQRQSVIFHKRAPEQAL

168 GPCRs [6] = target: T6, 168 GPCRs (Homo sapiens, UniProt P0DMS8)
T6 construct: host or cells: PathHunter cell lines
T6 sequence (P0DMS8 1-318): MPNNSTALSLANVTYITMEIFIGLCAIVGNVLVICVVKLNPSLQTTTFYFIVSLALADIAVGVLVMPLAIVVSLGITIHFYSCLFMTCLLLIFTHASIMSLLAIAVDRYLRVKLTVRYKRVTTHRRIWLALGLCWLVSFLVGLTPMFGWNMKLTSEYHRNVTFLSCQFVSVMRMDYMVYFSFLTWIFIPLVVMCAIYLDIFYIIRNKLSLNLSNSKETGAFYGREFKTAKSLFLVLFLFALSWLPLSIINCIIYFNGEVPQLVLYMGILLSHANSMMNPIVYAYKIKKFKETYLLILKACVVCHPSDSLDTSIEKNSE

168 GPCRs [7] = target: T7, 168 GPCRs (Homo sapiens, UniProt P47211)
T7 construct: host or cells: PathHunter cell lines
T7 sequence (P47211 1-349): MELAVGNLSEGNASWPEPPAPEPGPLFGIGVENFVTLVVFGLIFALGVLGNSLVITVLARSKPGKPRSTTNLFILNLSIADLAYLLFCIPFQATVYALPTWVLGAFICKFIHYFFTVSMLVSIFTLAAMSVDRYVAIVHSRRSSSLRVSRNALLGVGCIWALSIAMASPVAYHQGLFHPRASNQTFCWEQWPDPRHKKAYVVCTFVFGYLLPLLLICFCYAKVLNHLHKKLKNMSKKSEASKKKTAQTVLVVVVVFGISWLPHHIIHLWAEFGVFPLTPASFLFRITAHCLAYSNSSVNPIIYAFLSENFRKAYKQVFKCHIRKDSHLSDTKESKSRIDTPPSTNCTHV

## CNC(C)Cc1ccc2c(c1)OCO2 (centres unmarked) [MDMA, 3,4-Methylenedioxy methamphetamine, reference compound]
168 GPCRs [1]; CMKLR1, 1 uM
  % Agonist Activity: -0.3%
  % Antagonist Activity: 0.4%
168 GPCRs [1]; CMKLR1, 10 uM
  % Agonist Activity: -0.4%
  % Antagonist Activity: 1.1%
168 GPCRs [2]; 1 uM
  % Agonist Activity: 1.9%
  % Antagonist Activity: 18%
168 GPCRs [2]; 10 uM
  % Agonist Activity: 1.1%
  % Antagonist Activity: 12.7%
168 GPCRs [3]; Conc 1 uM
  % Agonist Activity: 4.9%
  % Antagonist Activity: 2.5%
168 GPCRs [3]; Conc 10 uM
  % Agonist Activity: 4.6%
  % Antagonist Activity: 1.2%
168 GPCRs [4]; 1 uM
  % Agonist Activity: 0.7%
  % Antagonist Activity: 3.2%
168 GPCRs [4]; 10 uM
  % Agonist Activity: -0.1%
  % Antagonist Activity: -5.8%
168 GPCRs [5]; CHRM3, 1 uM
  % Agonist Activity: 5.1%
  % Antagonist Activity: -9.4%
168 GPCRs [5]; CHRM3, 10 uM
  % Agonist Activity: 4.3%
  % Antagonist Activity: 1.4%
168 GPCRs [6]; ADORA3, 1 uM
  % Agonist Activity: 0.7%
  % Antagonist Activity: -15.4%
168 GPCRs [6]; ADORA3, 10 uM
  % Agonist Activity: 0.6%
  % Antagonist Activity: -11.5%
168 GPCRs [7]; GALR1, 1 uM
  % Agonist Activity: 0.7%
  % Antagonist Activity: -0.2%
168 GPCRs [7]; GALR1, 10 uM
  % Agonist Activity: 0.6%
  % Antagonist Activity: -5.1%

## CNC(C)C(=O)c1ccc2c(c1)OCO2 (centres unmarked) [methylone]
168 GPCRs [1]; CMKLR1, 1 uM
  % Agonist Activity: -0.2%
  % Antagonist Activity: -0.2%
168 GPCRs [1]; CMKLR1, 10 uM
  % Agonist Activity: -0.3%
  % Antagonist Activity: -5.6%
168 GPCRs [2]; 1 uM
  % Agonist Activity: -3.5%
  % Antagonist Activity: 7.6%
168 GPCRs [2]; 10 uM
  % Agonist Activity: 0.2%
  % Antagonist Activity: 13.2%
168 GPCRs [3]; Conc 1 uM
  % Agonist Activity: 4.5%
  % Antagonist Activity: 6.5%
168 GPCRs [3]; Conc 10 uM
  % Agonist Activity: 2.4%
  % Antagonist Activity: 2.6%
168 GPCRs [4]; 1 uM
  % Agonist Activity: -1%
  % Antagonist Activity: -11.8%
168 GPCRs [4]; 10 uM
  % Agonist Activity: -2.2%
  % Antagonist Activity: -8.4%
168 GPCRs [5]; CHRM3, 1 uM
  % Agonist Activity: 6%
  % Antagonist Activity: -5.5%
168 GPCRs [5]; CHRM3, 10 uM
  % Agonist Activity: 6%
  % Antagonist Activity: 14.6%
168 GPCRs [6]; ADORA3, 1 uM
  % Agonist Activity: -4.5%
  % Antagonist Activity: 11.3%
168 GPCRs [6]; ADORA3, 10 uM
  % Agonist Activity: -5.3%
  % Antagonist Activity: 7.7%
168 GPCRs [7]; GALR1, 1 uM
  % Agonist Activity: 0.8%
  % Antagonist Activity: 7.1%
168 GPCRs [7]; GALR1, 10 uM
  % Agonist Activity: 0.6%
  % Antagonist Activity: 6.8%
